According to PMC11374673, “Discovery of isoquinoline sulfonamides as allosteric gyrase inhibitors with activity against fluoroquinolone-resistant bacteria” (Nature Chemistry, 2024):
Values joined by “and” are separate entries in the source; they are usually repeats but may differ in a detail not shown here. Equal values may be shown once. Read-outs that look alike come from different tables or passages of the source.

Tests used:
K. pneumoniae ATCC 29665 = assay: MIC by broth microdilution; assay type: cell-based, Klebsiella pneumoniae; conditions: read-out: MIC K. pneumoniae ATCC 29665
How it was run: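 Exponential-phase cultures (OD600 0.5, 37 °C aerobic), diluted 100-fold in CAMHB, were added to twofold compound dilution series. Keio strains grown with 50 µg ml^−1 kanamycin. Plates incubated overnight at 37 °C, shaking at 600 r.p.m.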

HEK293T = assay: Cytotoxicity assay (MTT); assay type: cell-based, human; conditions: for MTT data (raw readout): HEK293T; for IC50: 24 h, MTT
How it was run: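 HEK293T cells, maintained at 37 °C and 7% CO2 in Dulbecco’s modified Eagle medium with GlutaMax, antibiotics and serum, were plated in clear 96-well plates in 100 µl medium containing 1% fetal bovine serum and left 24 h to attach. After 24 h compound exposure, MTT (0.40 mg ml^−1) was added for 2 h. Formazan was dissolved in 100 µl DMSO and absorbance measured at 570 nm. Background-corrected IC50 values came from variable-slope non-linear fits.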

HepG2 = assay: Cytotoxicity assay (MTT); assay type: cell-based, human; conditions: for IC50: MTT, 24 h
[1] = molecular target: T1, E. coli GyrA S172A/GyrB gyrase (Escherichia coli, UniProt P0AES4, S172A); assay: Gyrase supercoiling inhibition, GyrA S172A variant; assay type: biochemical
T1 construct: represents the first full-length E. coli gyrase structure in complex with an intact DNA molecule; 10xHis; 2xStrep (Twin-Strep); made in house
Method: Of this stock solution, 27 µl was aliquoted for each reaction in 1.5 ml Eppendorf tubes and supplemented with 0.6 µl of the appropriate compound dilution or corresponding solvent with a final DMSO concentration of 2%. The reactions were started with 3 µl of enzyme (1 U for WT gyrase retrieved from Inspiralis Limited or 25–30 nM gyrase variants purified in house) in dilution buffer (50 mM Tris–HCl (pH 7.5), 100 mM KCl, 2 mM DTT, 1 mM EDTA and 50% (wt/vol) glycerol) for a final volume of 30 µl. Reactions were run at 37 °C for 30 min and stopped with the addition of 30 µl STEB buffer (40% (wt/vol) sucrose, 100 mM Tris–HCl pH 8, 100 mM EDTA, 0.5 mg ml^−1 bromophenol blue) and 30 µl of a chloroform:isoamyl alcohol solution (24:1 vol/vol). After brief vortexing and centrifugation at 2,300g for 1 min, 20 µl of the aqueous phase was loaded onto 1% (wt/vol) agarose gels in TAE (Tris–acetate […]) gel. The gels were run at 85 V for 2 h followed by staining (15 min) in 1 µg ml^−1 ethidium bromide and destaining (5–10 min) in water. DNA was visualized (602/50, UV Trans, auto optimal exposure) with a ChemiDoc MP (Bio-Rad Laboratories Inc., equipped with ImageLab Touch Software v2.0.0.27) and the percentage of supercoiled DNA relative to the total amount material per lane was determined with ImageLab 6.1 software (Bio-Rad Laboratories Inc.) or ImageJ[47] software. […]

## O=S(=O)(NC[C@H]1CC[C@@H](c2ccc(-c3ccc(F)nc3)cc2)N1)c1cccc2cnccc12 [LEI-801]
K. pneumoniae ATCC 29665; Klebsiella pneumoniae, ATCC29665, broth microdilution
  MIC: > 50 µM
K. pneumoniae ATCC 29665; broth microdilution, listed as LEI-801 (99)
  MIC: > 50 µM
HEK293T; 0.023 uM, experiment n = 1, technical triplicates, listed as LEI-801 (99)
  MTT data (raw readout): 1.090 and 1.041 and 1.057
HEK293T; 0.023 uM, experiment n = 2, technical triplicates, listed as LEI-801 (99)
  MTT data (raw readout): 0.858 and 0.977 and 0.938
HEK293T; 0.068 uM, experiment n = 1, technical triplicates, listed as LEI-801 (99)
  MTT data (raw readout): 1.154 and 1.082 and 1.072
HEK293T; 0.068 uM, experiment n = 2, technical triplicates, listed as LEI-801 (99)
  MTT data (raw readout): 1.027 and 1.034 and 1.015
HEK293T; 0.21 uM, experiment n = 1, technical triplicates, listed as LEI-801 (99)
  MTT data (raw readout): 1.127 and 1.121 and 1.094
HEK293T; 0.21 uM, experiment n = 2, technical triplicates, listed as LEI-801 (99)
  MTT data (raw readout): 0.913 and 0.892 and 0.944
HEK293T; 0.62 uM, experiment n = 1, technical triplicates, listed as LEI-801 (99)
  MTT data (raw readout): 1.141 and 1.092 and 0.930
HEK293T; 0.62 uM, experiment n = 2, technical triplicates, listed as LEI-801 (99)
  MTT data (raw readout): 1.083 and 0.946 and 1.064
HEK293T; 1.85 uM, experiment n = 1, technical triplicates, listed as LEI-801 (99)
  MTT data (raw readout): 1.167 and 1.005 and 0.915
HEK293T; 5.6 uM, experiment n = 1, technical triplicates, listed as LEI-801 (99)
  MTT data (raw readout): 0.937 and 1.019 and 1.040
HEK293T; 5.6 uM, experiment n = 2, technical triplicates, listed as LEI-801 (99)
  MTT data (raw readout): 1.075 and 0.764 and 0.931
HEK293T; 16.7 uM, experiment n = 1, technical triplicates, listed as LEI-801 (99)
  MTT data (raw readout): 0.838 and 0.818 and 0.874
HEK293T; 16.7 uM, experiment n = 2, technical triplicates, listed as LEI-801 (99)
  MTT data (raw readout): 0.745 and 0.746 and 0.735
HEK293T; 50 uM, experiment n = 1, technical triplicates, listed as LEI-801 (99)
  MTT data (raw readout): 0.494 and 0.473 and 0.487
HEK293T; 50 uM, experiment n = 2, technical triplicates, listed as LEI-801 (99)
  MTT data (raw readout): 0.506 and 0.491 and 0.495
HEK293T; Homo sapiens, HEK-293T
  IC50: 51 µM
HEK293T; listed as LEI-801 (99)
  IC50: > 50 µM
HepG2; HepG2, 0.023 uM, experiment n = 1, technical triplicates, listed as LEI-801 (99)
  MTT data (raw readout): 0.358 and 0.291 and 0.289
HepG2; HepG2, 0.023 uM, experiment n = 2, technical triplicates, listed as LEI-801 (99)
  MTT data (raw readout): 0.296 and 0.284 and 0.274
HepG2; HepG2, 0.068 uM, experiment n = 1, technical triplicates, listed as LEI-801 (99)
  MTT data (raw readout): 0.356 and 0.307 and 0.313
HepG2; HepG2, 0.068 uM, experiment n = 2, technical triplicates, listed as LEI-801 (99)
  MTT data (raw readout): 0.301 and 0.287 and 0.260
HepG2; HepG2, 0.21 uM, experiment n = 1, technical triplicates, listed as LEI-801 (99)
  MTT data (raw readout): 0.330 and 0.315 and 0.323
HepG2; HepG2, 0.21 uM, experiment n = 2, technical triplicates, listed as LEI-801 (99)
  MTT data (raw readout): 0.350 and 0.289 and 0.265
HepG2; HepG2, 0.62 uM, experiment n = 1, technical triplicates, listed as LEI-801 (99)
  MTT data (raw readout): 0.417 and 0.319 and 0.320
HepG2; HepG2, 0.62 uM, experiment n = 2, technical triplicates, listed as LEI-801 (99)
  MTT data (raw readout): 0.301 and 0.282 and 0.253
HepG2; HepG2, 1.85 uM, experiment n = 1, technical triplicates, listed as LEI-801 (99)
  MTT data (raw readout): 0.361 and 0.335 and 0.354
HepG2; HepG2, 1.85 uM, experiment n = 2, technical triplicates, listed as LEI-801 (99)
  MTT data (raw readout): 0.263 and 0.269 and 0.244
HepG2; HepG2, 5.6 uM, experiment n = 1, technical triplicates, listed as LEI-801 (99)
  MTT data (raw readout): 0.370 and 0.351 and 0.360
HepG2; HepG2, 5.6 uM, experiment n = 2, technical triplicates, listed as LEI-801 (99)
  MTT data (raw readout): 0.293 and 0.267 and 0.296
HepG2; HepG2, 16.7 uM, experiment n = 1, technical triplicates, listed as LEI-801 (99)
  MTT data (raw readout): 0.376 and 0.357 and 0.431
HepG2; HepG2, 16.7 uM, experiment n = 2, technical triplicates, listed as LEI-801 (99)
  MTT data (raw readout): 0.300 and 0.252 and 0.259
HepG2; HepG2, 50 uM, experiment n = 1, technical triplicates, listed as LEI-801 (99)
  MTT data (raw readout): 0.327 and 0.318 and 0.307
HepG2; HepG2, 50 uM, experiment n = 2, technical triplicates, listed as LEI-801 (99)
  MTT data (raw readout): 0.232 and 0.220 and 0.225
HepG2; Homo sapiens, HepG2, 24 h
  IC50: > 100 µM
HepG2; listed as LEI-801 (99)
  IC50: > 50 µM
[1]
  IC50: 0.36 µM
